# Source: patent US8859287B2, “Compositions and methods for treatment of cancer using tissue-specific oncolytic adenoviruses” (The Johns Hopkins University, priority 2009, dated 2014)
# Tests used:
# C4-2 cells = assay: MTS assay, growth inhibition and cytotoxicity, virus alone or with adriamycin; assay type: cell-based; details: adriamycin alone 0.1 μg/ml; by 72 hours
# Protocol: 3-(4,5)-Dimethylthiazol-2-yl)-5-(3-carboxy-methoxyphenyl)-2-(4-sulfophenyl)-2H-tetrazolium (MTS) assay: The metabolic viability of the cells was monitored using a MTS assay kit (CellTiter 96) from Promega (Madison, Wis.). Briefly cells are seeded onto 96-well plates and cultured in the presence of test agents for indicated time intervals. A mixture of MTS and phenazine methosulfate (an electron-coupling reagent; final concentrations 333 μg/ml and 25 μM, respectively) is added, and cells are incubated for 30 minutes at 37° C. Formazan formed from the reduction of MTS is quantified by measurement of absorbance of the medium at 490 nm using a microplate reader (All data have been normalized to the background signals).
# Combinatory studies of Adriamycin with Ad5-RV004.21 or Ad5-RV004 virus in C4-2 cells: Combination treatment of viruses with radiation or chemotherapy hold promise as a new strategy for cancer treatment. However, there are reports of attenuated cytotoxicity of CRAds when combined with chemotherapies (e.g., doxorubicin). […] Cell cytotoxicity is measured by MTS assay after 72 hours of treatment and followed every 24 hours for a total of 7 days. […] The predicted value for the combinatory effect can be calculated and is given by the dotted gray line.
# [1] = tested on: p21/Waf-1 knockdown C4-2 cells; assay: Cell death of p21/Waf-1 knockdown C4-2 cells treated with drug; assay type: cell-based
smiles,measurement,setting,value
COc1cccc2c1C(=O)c1c(O)c3c(c(O)c1C2=O)C[C@@](O)(C(=O)CO)C[C@@H]3O[C@H]1C[C@H](N)[C@H](O)[C@H](C)O1 [adriamycin],C4-2 cells killed,C4-2 cells,~50%
same,cell death in p21/Waf-1 knockdown C4-2 cells compared to the wild type cell lines,[1],increase in cell death
